What follows are substances tested against Prostate-specific membrane antigen (PSMA) (Homo sapiens, UniProt Q04609) (assay: inhibition of purified PSMA enzymatic activity).
Prostate-specific membrane antigen (PSMA), sequence (Q04609 whole entry): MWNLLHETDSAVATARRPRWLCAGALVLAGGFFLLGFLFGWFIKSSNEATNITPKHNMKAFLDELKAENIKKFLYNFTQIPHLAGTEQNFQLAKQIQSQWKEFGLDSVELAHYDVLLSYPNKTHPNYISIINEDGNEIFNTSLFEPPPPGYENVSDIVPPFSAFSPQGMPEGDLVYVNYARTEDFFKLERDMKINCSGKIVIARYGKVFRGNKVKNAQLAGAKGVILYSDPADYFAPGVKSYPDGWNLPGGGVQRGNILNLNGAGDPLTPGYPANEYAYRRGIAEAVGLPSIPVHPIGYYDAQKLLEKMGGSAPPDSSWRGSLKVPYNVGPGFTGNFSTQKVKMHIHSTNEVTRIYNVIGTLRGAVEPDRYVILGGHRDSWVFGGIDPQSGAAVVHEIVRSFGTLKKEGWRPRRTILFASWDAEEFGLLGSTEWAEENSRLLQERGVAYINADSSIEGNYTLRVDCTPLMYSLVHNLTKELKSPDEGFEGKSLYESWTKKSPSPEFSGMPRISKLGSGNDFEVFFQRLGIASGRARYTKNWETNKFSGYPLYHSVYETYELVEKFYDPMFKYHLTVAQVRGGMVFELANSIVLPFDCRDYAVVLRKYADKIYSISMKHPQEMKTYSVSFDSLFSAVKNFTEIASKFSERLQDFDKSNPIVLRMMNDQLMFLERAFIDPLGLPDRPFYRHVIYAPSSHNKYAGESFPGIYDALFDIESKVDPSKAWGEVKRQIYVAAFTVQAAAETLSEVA
Format: biochemical
biotin-CTT54 gave an IC50 of 1.21 nM.
biotin-PEG4-CTT54 showed an IC50 of 2.53 nM.
Work on biotin-PEG12-CTT54 yielded an IC50 of 10 nM.

Source: PMC3526141 (Bioorganic & medicinal chemistry letters, 2012)
